Read-outs that look alike come from different tables or passages of the source.
Legend:
[1] = target: serotonin receptor 5-HT2A (Homo sapiens, UniProt P28223); experiment: NIH-PDSP binding assay, 5-HT2A (3H-ketanserin); settings: for mean % inhibition 5-HT2A: Table 4, N=4 determinations, significant inhibition >50%, negative = stimulation of binding
Description: (§1) Biological Evaluation of selected compounds was done through the National Institutes of Health Psychoactive Drug Screening Program (NIH-PDSP). Biological evaluation of the synthesized molecules consisted of: (a) Neurotransmitter uptake assays for the human serotonin transporter (SERT), (b) Binding assays for the serotonin receptor 5-HT1A, (c) Binding assays for the serotonin receptor 5-HT2A, and (d) Comparison of the biological data obtained for the synthesized molecules with that of currently used psychotherapeutics.
(§2) All binding assays were carried out with an incubation time of 60 minutes at room temperature. All binding assays were performed in a similar manner, although the buffers used differ from assay to assay.
(§3) Table 2 below gives the (1) radioligand; (2) assay buffer; (3) unlabelled reference ligand; and (4) references to the commonly-known procedures which were used.
(§4) The assay buffer A was made up of 50 mM Tris-Cl, 0.1 mM EDTA, and 10 mM MgCl2, at a pH of 7.4. To perform the assay, a 96-well plate was set up as follows:
(§5) For the 3H-ligands 1-2 nM final concentration of radioligand was used. For 125I-radioligands, 0.05-0.1 nM final concentration was used. The following components were pipetted in the following order: binding buffer, radioligand, cold unknown ligand, cold reference ligand, and membranes. The wells were incubated at room temperature for 60 minutes. At the end of the incubation, the samples were harvested onto pre-soaked (0.3% polyethyleneimine) GF/C filters using a 96-well harvester. They were then washed with 3 quick washes using ice-cold harvest buffer. The filters were removed and air dried overnight. Samples were counted in a 96-well counter using 100 μl of scintillant/well. The Ki value of the reference compound was calculated using the LIGAND Program (Munson and Rodbard, 1980). The percent inhibition was calculated using the following formula: […]

[2] = tested on: 5HT1A, 5HT2A, SERT; experiment: Preliminary Analysis of Biological Data (NIH-PDSP binding profile); settings: in words; compounds 1b through 7b of Tables 4 and 5
Description: as §1
Ten (10) of the sixteen (16) compounds synthesized were biologically evaluated. Compounds 10b, 11b and 12b were previously evaluated for their serotonin uptake ability as described in Example 5. For screening purposes, compounds 1b through 7b were analyzed for their affinity towards the serotonin 5-HT1A receptor as well as their affinity towards the 5-HT2A receptor and the SERT. Data in […] represent mean % inhibition (N=4 determinations) for compound tested at receptor subtypes. Significant inhibition is considered >50%. In cases where negative inhibition (−) is seen, this represents a stimulation of binding. Occasionally, compounds at high concentrations will non-specifically increase binding. Ki values were determined only for compounds with % inhibition>50%.

[3] = target: T1, serotonin receptor 5-HT1A (Homo sapiens, UniProt P08908); experiment: NIH-PDSP binding assay, 5-HT1A (3H-8-OH-DPAT); settings: for mean % inhibition 5-HT1A: Table 4, N=4 determinations, significant inhibition >50%, negative = stimulation of binding
T1 sequence (P08908 1-422): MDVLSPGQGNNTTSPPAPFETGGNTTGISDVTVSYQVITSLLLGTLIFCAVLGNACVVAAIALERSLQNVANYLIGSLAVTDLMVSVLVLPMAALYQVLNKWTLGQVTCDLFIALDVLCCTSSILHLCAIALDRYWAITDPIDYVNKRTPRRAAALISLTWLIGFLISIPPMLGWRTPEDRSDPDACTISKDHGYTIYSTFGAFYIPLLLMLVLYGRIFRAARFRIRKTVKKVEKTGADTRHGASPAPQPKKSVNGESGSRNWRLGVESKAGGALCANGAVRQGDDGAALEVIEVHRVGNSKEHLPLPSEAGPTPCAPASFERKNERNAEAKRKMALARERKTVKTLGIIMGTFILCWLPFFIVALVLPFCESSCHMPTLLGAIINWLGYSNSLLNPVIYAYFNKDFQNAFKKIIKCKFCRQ
Description: as §1, §2, §3, §4, §5

[4] = target: human serotonin transporter (SERT) (Homo sapiens, UniProt P31645); experiment: NIH-PDSP transporter binding assay, SERT (3H-Citalopram); settings: for mean % inhibition SERT: Table 4, N=4 determinations, significant inhibition >50%, negative = stimulation of binding; for affinity for SERT: in words, compounds 1b through 7b of Tables 4 and 5
Description: as §1, §2
The assay buffer H contained 50 mM Tris-HCl, […], and 5 mM KCl, at a pH of 7.4. For the peptide receptor binding assay, filters were pre-soaked for 7 days in 0.3% PEI. To perform the assay, a 96-well plate was set up as follows:
as §5

[5] = target: SERT (Homo sapiens, UniProt P31645); settings: reference compounds, Orjales, cited from earlier work
[6] = target: 5-HT2A (Homo sapiens, UniProt P28223); settings: cited from earlier work
[7] = Table 5, determined only for % inhibition >50%
[8] = Table 7, Homologues Type I (Aminoethane Derivatives), — = No significant inhibition
[9] = Table 7, Homologues Type I (Aminoethane Derivatives)
[10] = Table 8, Homologues Type II (Aminopropane Derivatives), — = No significant inhibition
[11] = Table 8, Homologues Type II (Aminopropane Derivatives)

SERT, sequence (P31645 whole entry, species assumed): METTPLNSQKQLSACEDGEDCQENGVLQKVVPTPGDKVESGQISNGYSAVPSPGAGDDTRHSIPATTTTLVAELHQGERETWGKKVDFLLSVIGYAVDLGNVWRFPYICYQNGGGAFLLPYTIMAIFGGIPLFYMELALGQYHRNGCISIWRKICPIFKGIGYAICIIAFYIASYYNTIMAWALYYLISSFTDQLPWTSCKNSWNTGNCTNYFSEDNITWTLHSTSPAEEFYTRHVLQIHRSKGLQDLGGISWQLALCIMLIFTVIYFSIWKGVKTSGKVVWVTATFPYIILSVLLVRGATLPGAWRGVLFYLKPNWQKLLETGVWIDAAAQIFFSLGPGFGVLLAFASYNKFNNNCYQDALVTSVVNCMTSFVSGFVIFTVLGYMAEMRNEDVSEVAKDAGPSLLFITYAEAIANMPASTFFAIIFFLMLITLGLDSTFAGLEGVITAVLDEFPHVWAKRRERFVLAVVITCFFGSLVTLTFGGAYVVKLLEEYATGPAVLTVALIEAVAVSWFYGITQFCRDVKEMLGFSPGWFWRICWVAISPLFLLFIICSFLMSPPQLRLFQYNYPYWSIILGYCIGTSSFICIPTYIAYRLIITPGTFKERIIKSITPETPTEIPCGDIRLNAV
human serotonin transporter (SERT), sequence (P31645 whole entry): as the sequence (P31645 whole entry, species assumed) above
serotonin receptor 5-HT2A, sequence (P28223 whole entry): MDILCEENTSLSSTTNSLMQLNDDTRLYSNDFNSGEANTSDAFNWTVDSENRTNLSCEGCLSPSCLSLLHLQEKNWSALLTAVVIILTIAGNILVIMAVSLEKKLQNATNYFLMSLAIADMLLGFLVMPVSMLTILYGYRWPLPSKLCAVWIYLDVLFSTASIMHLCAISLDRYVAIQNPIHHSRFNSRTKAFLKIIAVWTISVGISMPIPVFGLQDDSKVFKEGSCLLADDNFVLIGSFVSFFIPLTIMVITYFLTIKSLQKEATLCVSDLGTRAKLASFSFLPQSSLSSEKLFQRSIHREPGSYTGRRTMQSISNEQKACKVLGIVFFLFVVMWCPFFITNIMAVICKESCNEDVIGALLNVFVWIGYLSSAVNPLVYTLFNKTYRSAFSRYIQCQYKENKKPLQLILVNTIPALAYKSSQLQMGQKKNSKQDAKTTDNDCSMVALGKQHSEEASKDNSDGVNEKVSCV
5-HT2A, sequence (P28223 whole entry, species assumed): as the sequence (P28223 whole entry) above

SMILES	Ki [1, 10]	Ki [3, 11]	Ki [4, 11]	other results
FC(F)(F)c1ccc(OC(CCN2CCN(c3ccccc3)CC2)c2ccccc2)cc1 (stereo not shown) [Compound 2b]	–	–	–	mean % inhibition 5-HT2A [1]: 81.0%; Ki [1, 7]: 195 nM; dual activity towards the 5-HT2A receptor and the SERT [2]: desired dual activity towards the 5-HT2A receptor and the SERT, although low; mean % inhibition 5-HT1A [3]: 91.0%; Ki [3, 7]: 716 nM; mean % inhibition SERT [4]: 67.0%; Ki [4, 7]: 1870 nM; affinity for SERT [4]: low affinity
FC(F)(F)c1ccc(OC(CN2CCN(c3cccc(C(F)(F)F)c3)CC2)c2ccccc2)cc1 (stereo not shown) [Compound 4b]	–	–	–	Ki [3, 8]: 1460 nM; Ki [4, 9]: 4510 nM
Fc1ccc(OC(CCN2CCN(c3ncccn3)CC2)c2ccccc2)cc1 (stereo not shown) [Compound 24b]	853 nM	803 nM	≥ 10000 nM	–
Fc1ccc(OC(CCN2CCC(c3noc4cc(F)ccc34)CC2)c2ccccc2)cc1 (stereo not shown) [Compound 30b]	398 nM	8.6 nM	1690 nM	–
Fc1ccc(OC(CCN2CCN(c3cccc(C(F)(F)F)c3)CC2)c2ccccc2)cc1 (stereo not shown) [Compound 20b]	747 nM	20 nM	330 nM	–
FC(F)(F)c1ccc(OC(CCN2CCN(c3ncccn3)CC2)c2ccccc2)cc1 (stereo not shown) [Compound 25b]	1790 nM	434 nM	6820 nM	–
CCCN(CCC)C1CCc2cccc(O)c2C1 (stereo not shown) [Compound 8-OH-DPAT]	–	–	–	Ki ([5]; Table 5, et al. 2003): > 1000 nM; Ki ([5]; Table 7, et. al., 2003): > 1000 nM; Ki ([5]; Table 8, et. al., 2003): > 1000 nM; Ki [6]: > 1000 nM
FC(F)(F)c1ccc(OC(CN2CCN(c3cccc(Cl)c3)CC2)c2ccccc2)cc1 (stereo not shown) [Compound 3]	–	–	–	mean % inhibition 5-HT2A [1]: 17.0%; mean % inhibition 5-HT1A [3]: 71.0%; Ki [3, 7]: 712 nM; mean % inhibition SERT [4]: 22.0%
Fc1ccc(OC(CN2CCN(c3ccccc3)CC2)c2ccccc2)cc1 (stereo not shown) [Compound 1]	–	–	–	mean % inhibition 5-HT2A [1]: 61.0%; Ki [1, 7]: 3490 nM; melting point: 80 to 82 °C; mean % inhibition 5-HT1A [3]: 98.0%; Ki [3, 7]: 258 nM; mean % inhibition SERT [4]: 12.0%
O=C(CCCN1CCN(CC(Oc2ccc(C(F)(F)F)cc2)c2ccccc2)CC1)c1ccc(F)cc1 (stereo not shown) [Compound 15b]	–	–	–	Ki [1, 8]: 157 nM; Ki [3, 8]: 2730 nM; Ki [4, 9]: 1380 nM
COc1ccccc1N1CCN(CC(Oc2ccc(C(F)(F)F)cc2)c2ccccc2)CC1 (stereo not shown) [Compound 5b]	–	–	–	Ki [1, 8]: > 10000 nM; Ki [3, 8]: 22 nM; Ki [4, 9]: ≥ 10000 nM
CN1CCN(CC(Oc2ccc(C(F)(F)F)cc2)c2ccccc2)CC1 (stereo not shown) [Compound 9b]	–	–	–	Ki [1, 8]: 405 nM; Ki [4, 9]: 3660 nM
CN1CCN(CCC(Oc2ccc(F)cc2)c2ccccc2)CC1 (stereo not shown) [Compound 26b]	1330 nM	> 10000 nM	2900 nM	–
FC(F)(F)c1ccc(OC(CCN2CCN(c3ccccc3)CC2)c2ccccc2)cc1 (single isomer, unassigned) [Compound 17b]	605 nM	315 nM	761 nM	–
Fc1ccc(OC(CCN2CCN(c3cccc(Cl)c3)CC2)c2ccccc2)cc1 (stereo not shown) [Compound 18b]	94 nM	11 nM	289 nM	–
O=C(c1ccc(F)cc1)C1CCN(CCC(Oc2ccc(F)cc2)c2ccccc2)CC1 (stereo not shown) [Compound 28b]	69.6 nM	234 nM	6480 nM	–

SMILES	Ki [1, 10]	Ki [3, 11]	Ki [4, 11]	other results
O=C(c1ccc(F)cc1)C1CCN(CCC(Oc2ccc(C(F)(F)F)cc2)c2ccccc2)CC1 (stereo not shown) [Compound 29b]	73.7 nM	304 nM	1240 nM	–
O=C(CCCN1CCN(CCC(Oc2ccc(C(F)(F)F)cc2)c2ccccc2)CC1)c1ccc(F)cc1 (stereo not shown) [Compound 33b]	406 nM	5010 nM	725 nM	–
CN1CCN(CCC(Oc2ccc(C(F)(F)F)cc2)c2ccccc2)CC1 (stereo not shown) [Compound 27b]	1740 nM	9560 nM	7010 nM	–
FC(F)(F)c1ccc(OC(CN2CCN(c3cccc(Cl)c3)CC2)c2ccccc2)cc1 (stereo not shown) [Compound 3b]	–	–	–	Ki [3, 8]: 649 nM; Ki [4, 9]: 4930 nM
O=C(CCCN1CCN(CCC(Oc2ccc(F)cc2)c2ccccc2)CC1)c1ccc(F)cc1 (stereo not shown) [Compound 32b]	420 nM	2640 nM	1350 nM	–
FC(F)(F)c1ccc(OC(CCN2CCN(c3cccc(Cl)c3)CC2)c2ccccc2)cc1 (stereo not shown) [Compound 19b]	1340 nM	311 nM	357 nM	–
FC(F)(F)c1ccc(OC(CCN2CCN(c3cccc(C(F)(F)F)c3)CC2)c2ccccc2)cc1 (stereo not shown) [Compound 21b]	–	193 nM	1330 nM	–
Fc1ccc2c(C3CCN(CCC(Oc4ccc(C(F)(F)F)cc4)c4ccccc4)CC3)noc2c1 (stereo not shown) [Compound 31b]	23.2 nM	420 nM	718 nM	–
O=C(CCCN1CCN(CC(Oc2ccc(F)cc2)c2ccccc2)CC1)c1ccc(F)cc1 (stereo not shown) [Compound 14b]	–	–	–	Ki [1, 8]: ≥ 10000 nM; Ki [3, 8]: 1180 nM; Ki [4, 9]: 1120 nM
Fc1ccc(OC(CCN2CCN(c3ccccc3)CC2)c2ccccc2)cc1 (stereo not shown) [Compound 16b]	76 nM	9 nM	1130 nM	mean % inhibition 5-HT2A [1]: 96.0%; mean % inhibition 5-HT1A [3]: 100.0%; mean % inhibition SERT [4]: 62.0%
FC(F)(F)c1ccc(OC(CN2CCN(c3ccccc3)CC2)c2ccccc2)cc1 (stereo not shown) [Compound 2b]	–	–	–	Ki [3, 8]: 392 nM; Ki [4, 9]: > 10000 nM
Fc1ccc2c(C3CCN(CC(Oc4ccc(C(F)(F)F)cc4)c4ccccc4)CC3)noc2c1 (stereo not shown) [Compound 13b]	–	–	–	Ki [1, 8]: > 10000 nM; Ki [3, 8]: 1970 nM; Ki [4, 9]: 1650 nM
COc1ccccc1N1CCN(CCC(Oc2ccc(F)cc2)c2ccccc2)CC1 (stereo not shown) [Compound 22b]	761 nM	4 nM	2440 nM	–
COc1ccccc1N1CCN(CCC(Oc2ccc(C(F)(F)F)cc2)c2ccccc2)CC1 (stereo not shown) [Compound 23b]	1420 nM	42.1 nM	2200 nM	–
Fc1ccc(OC(CN2CCN(c3ccccc3)CC2)c2ccccc2)cc1 (stereo not shown) [Compound 1b]	–	–	–	Ki [1, 8]: 1120 nM; dual activity towards the 5-HT2A receptor and the SERT [2]: desired dual activity towards the 5-HT2A receptor and the SERT, although low; Ki [3, 8]: 99 nM; Ki [4, 9]: > 10000 nM; affinity for SERT [4]: low affinity

— patent publication US20120016124A1, “SEROTONIN REUPTAKE INHIBITORS” (Baylor University, priority 2007, published 2012)
